Key:
BACE1 [1] = molecular target: T1, BACE1 (Homo sapiens, UniProt P56817); assay: In Vitro BACE Cell-based Assay (HEK cell assay): Aβ40 in conditioned medium of cells stably expressing Amyloid Precursor Protein, sandwich ELISA; settings: read-out: HEK cell assay
Summary of the method: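 First, APP-stable cells grow 24 h at 37° C., 5% CO2. Next, test compounds are added for 24 h (10 doses, 0.1% DMSO). Finally, medium Aβ40 is determined by pAb40/6E10 sandwich ELISA with Europium TRF, and IC50 is calculated.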

BACE1 [2] = molecular target: T1, BACE1; assay: In Vitro Enzymatic BACE FRET (Fluorescence Resonance Energy Transfer) Assay; format: biochemical; settings: read-out: BACE1 FRET assay
Summary of the method: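 Acetate buffer at pH 4.2 with 10% DMSO and 100 uM genapol hosts the enzymatic reaction, initiated by 50 nM FRET substrate and allowed to proceed one hour. Tris quench to neutral pH precedes the fluorescence measurement.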

[3] = HEK cell-based assay, Aβ40 in conditioned medium, IC50 class symbols
[4] = in vitro BACE FRET enzyme assay, IC50 class symbols

T1 sequence (P56817 46-501, species assumed): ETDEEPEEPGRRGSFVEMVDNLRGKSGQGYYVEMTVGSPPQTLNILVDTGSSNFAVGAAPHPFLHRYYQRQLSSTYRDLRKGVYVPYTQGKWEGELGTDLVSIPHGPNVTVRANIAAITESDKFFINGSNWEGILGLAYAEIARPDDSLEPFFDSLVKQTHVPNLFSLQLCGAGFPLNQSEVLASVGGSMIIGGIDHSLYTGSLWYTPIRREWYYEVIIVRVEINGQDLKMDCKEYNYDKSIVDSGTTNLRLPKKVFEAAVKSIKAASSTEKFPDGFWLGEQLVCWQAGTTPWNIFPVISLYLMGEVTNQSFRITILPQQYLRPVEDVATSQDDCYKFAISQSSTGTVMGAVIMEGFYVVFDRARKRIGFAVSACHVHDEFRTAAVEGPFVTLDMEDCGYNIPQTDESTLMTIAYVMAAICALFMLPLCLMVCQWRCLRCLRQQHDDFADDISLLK

## NC1=NC2(CO1)c1cc(-c3ccc(F)nc3)ccc1Oc1ccc(-c3ccc(F)nc3)cc12 [compound 196]
BACE1 [1]; Table III, IC50's in uM ranges
  IC50: 0.1 to 1 µM
BACE1 [2]; Table III, IC50's in uM ranges
  IC50: < 0.1 µM

## NC1=N[C@@]2(CO1)c1ccccc1Oc1ccc(-c3cnc4ccccc4c3)cc12 [compound 628]
BACE1 [1]; Table IV, class symbols
  IC50: > 5 µM
BACE1 [2]; Table IV, class symbols
  IC50: > 5 µM

## NC1=N[C@@]2(CO1)c1cc(-c3cccnc3F)ccc1Oc1ccc(-c3ccncc3)nc12 [compound 402]
BACE1 [1]; [3]
  IC50: < 0.1 µM
BACE1 [2]; [4]
  IC50: < 0.1 µM

## CC(C)(F)COc1cnc2c(c1)[C@]1(COC(N)=N1)c1cc(-c3ccccc3)ccc1O2 [compound 452]
BACE1 [1]; HEK cells
  IC50: 0.1 to 1 µM
BACE1 [2]
  IC50: < 0.1 µM

## CC(C)(C)/C=C/c1cnc2c(c1)[C@]1(COC(N)=N1)c1cc(-c3cncnc3)ccc1O2 [compound 379]
BACE1 [1]; [3]
  IC50: < 0.1 µM
BACE1 [2]; [4]
  IC50: < 0.1 µM

## Cc1cscc1-c1ccc2c(c1)[C@@]1(COC(N)=N1)c1cc(OCC(C)(C)C)ccc1O2 [compound 738]
BACE1 [1]
  IC50: 1 to 5 µM
BACE1 [2]
  IC50: 0.1 to 1 µM

## CC1(C#Cc2cc(F)c3c(c2)[C@]2(COC(N)=N2)c2cc(-c4cncnc4)ccc2O3)COC1 [compound 475]
BACE1 [1]; HEK cells
  IC50: < 0.1 µM
BACE1 [2]
  IC50: < 0.1 µM

## CC(C)(C#N)COc1ccc2c(c1)[C@]1(COC(N)=N1)c1cc(-c3cncnc3)cnc1O2 [compound 167]
BACE1 [1]; Table III, IC50's in uM ranges
  IC50: 0.1 to 1 µM
BACE1 [2]; Table III, IC50's in uM ranges
  IC50: < 0.1 µM

## COC(C)(C)C#Cc1cnc2c(c1)[C@@]1(COC(N)=N1)c1cc(-c3ccc(F)nc3)ccc1O2 [compound 723]
BACE1 [1]
  IC50: 1 to 5 µM
BACE1 [2]
  IC50: 0.1 to 1 µM

## NC1=N[C@]2(CO1)c1cc(-c3ccccc3)ccc1Oc1ncc(C3=CCOCC3)cc12 [compound 718]
BACE1 [1]
  IC50: 1 to 5 µM
BACE1 [2]
  IC50: 1 to 5 µM

## NC1=N[C@@]2(CO1)c1cc(-c3cccnc3)ccc1Oc1ccc(-c3cncs3)cc12 [compound 660]
BACE1 [1]; Table IV, class symbols
  IC50: < 0.1 µM
BACE1 [2]; Table IV, class symbols
  IC50: < 0.1 µM

## CC(C)(C)COc1ccc2c(c1)[C@]1(COC(N)=N1)c1cc(-c3ccoc3)ccc1O2 [Example 76, (4S)-2′-(2,2-dimethylpropoxy)-7′-(3-furanyl)spiro[1,3-oxazole-4,9′-xanthen]-2-amine]
BACE1 [1]; Table II, Aβ40, 24 h incubation
  IC50: 1 to 5 µM
BACE1 [2]; Table II
  IC50: < 0.1 µM

## CC1(C)CN(c2cc(F)c3c(c2)[C@]2(COC(N)=N2)c2cc(-c4cccnc4)ccc2O3)CCO1 [compound 484]
BACE1 [1]; HEK cells
  IC50: < 0.1 µM
BACE1 [2]
  IC50: < 0.1 µM

## CC1(COc2ccc3c(c2)[C@]2(COC(N)=N2)c2cc(-c4cncnc4)cc(F)c2O3)COC1 [compound 796]
BACE1 [1]; Table IV, class symbols
  IC50: 0.1 to 1 µM
BACE1 [2]; Table IV, class symbols
  IC50: < 0.1 µM

## COc1cccc(-c2ccc3c(c2)C2(COC(N)=N2)c2ccc(C)cc2O3)c1F (stereo not drawn) [Example 30, 2′-(2-fluoro-3-methoxyphenyl)-6′-methylspiro[1,3-oxazole-4,9′-xanthen]-2-amine]
BACE1 [1]; Table 1, Aβ40, 24 h incubation
  IC50: > 5 µM
BACE1 [2]; Table 1
  IC50: > 5 µM

## CC(=O)c1cccc(-c2ccc3c(c2)[C@]2(COC(N)=N2)c2cc(OCC(C)(C)C)ccc2O3)c1 [compound 191]
BACE1 [1]; Table III, IC50's in uM ranges
  IC50: 1 to 5 µM
BACE1 [2]; Table III, IC50's in uM ranges
  IC50: < 0.1 µM

## CN(C)C(=O)/C=C/c1ccc2c(c1)[C@]1(COC(N)=N1)c1cc(-c3cncnc3)ccc1O2 [compound 917]
BACE1 [1]; Table IV, class symbols
  IC50: 0.1 to 1 µM
BACE1 [2]; Table IV, class symbols
  IC50: < 0.1 µM

## NC1=N[C@]2(CO1)c1cc(Oc3ccccn3)ccc1Oc1ccc(-c3cccnc3)cc12 [compound 207]
BACE1 [1]; Table III, IC50's in uM ranges
  IC50: 0.1 to 1 µM
BACE1 [2]; Table III, IC50's in uM ranges
  IC50: 0.1 to 1 µM

## NC1=N[C@@]2(CO1)c1ccccc1Oc1ccc(-c3cncnc3)cc12 [compound 844]
BACE1 [1]; Table IV, class symbols
  IC50: 0.1 to 1 µM
BACE1 [2]; Table IV, class symbols
  IC50: 0.1 to 1 µM

## NC1=N[C@]2(CO1)c1cc(OCC3CCOCC3)ccc1Oc1ccc(-c3cccnc3)cc12 [compound 933]
BACE1 [1]
  IC50: < 0.1 µM
BACE1 [2]
  IC50: < 0.1 µM

## Cc1csc(-c2ccc3c(c2)[C@]2(COC(N)=N2)c2cc(-c4cccnc4)ccc2O3)c1 [compound 726]
BACE1 [1]
  IC50: 0.1 to 1 µM
BACE1 [2]
  IC50: < 0.1 µM

## COC(C)(C)C#Cc1cnc2c(c1)[C@]1(COC(N)=N1)c1cc(-c3cncnc3)ccc1O2 [compound 822]
BACE1 [1]; Table IV, class symbols
  IC50: < 0.1 µM
BACE1 [2]; Table IV, class symbols
  IC50: < 0.1 µM

## Cn1cc(-c2cc3c(cn2)Oc2ccc(-c4cccnc4F)cc2[C@@]32COC(N)=N2)cn1 [compound 333]
BACE1 [1]; [3]
  IC50: < 0.1 µM
BACE1 [2]; [4]
  IC50: < 0.1 µM

## NC1=N[C@@]2(CO1)c1cc(-c3cccnc3)ccc1Oc1ccc(Cl)nc12 [compound 393]
BACE1 [1]; [3]
  IC50: 1 to 5 µM
BACE1 [2]; [4]
  IC50: 0.1 to 1 µM

## CC(C)(C)COc1ccc2c(c1)[C@@]1(COC(N)=N1)c1cc(-c3cncs3)ccc1O2 [compound 781]
BACE1 [1]
  IC50: 0.1 to 1 µM
BACE1 [2]
  IC50: < 0.1 µM

## CC1(C)C=C(c2cc3c(cn2)Oc2ccc(-c4cccnc4)cc2[C@@]32COC(N)=N2)CCO1 [compound 437, (5S)-3-(6,6-dimethyl-3,6-dihydro-2H-pyran-4-yl)-7-(3-pyridinyl)spiro[chromeno[2,3-c]pyridine-5,4′-[1,3]oxazol]-2′-amine]
BACE1 [1]; HEK cells
  IC50: < 0.1 µM
BACE1 [2]
  IC50: < 0.1 µM

## CC(C)(C)COc1ccc2c(c1)[C@]1(COC(N)=N1)c1cc(-c3cccc4ncccc34)ccc1O2 [compound 916]
BACE1 [1]; Table IV, class symbols
  IC50: 1 to 5 µM
BACE1 [2]; Table IV, class symbols
  IC50: 0.1 to 1 µM
